Measurements as given in ChEMBL document CHEMBL3621142, “Discovery and Evaluation of Clinical Candidate AZD3759, a Potent, Oral Active, Central Nervous System-Penetrant, Epidermal Growth Factor Receptor Tyrosine Kinase Inhibitor” (J Med Chem, 2015).
Activity calls are given as the source filed them. The calls are words filed in the database; no cut-off is given here.

Experiments:
[1] = (§1) Fraction unbound in Han Wistar rat blood at 5 uM by equilibrium dialysis method; assay type: ADME, tissue-based; details: Han Wistar
[2] = (§2) Elimination half life in Han Wistar rat at 1 mg/kg, iv; assay type: ADME, organism-based; details: Han Wistar, in vivo, read-out: beta t1/2 (converted)
[3] = Ratio of unbound AUC (0 to 7 hrs) in brain to blood of Han Wistar rat at 2 mg/kg, po by LC-MS/MS analysis; assay type: ADME, organism-based; details: for Kp uu: Han Wistar, brain and blood, read-out: K(p,uu,brain)
[4] = Clearance in Han Wistar rat at 1 mg/kg, iv; assay type: ADME, organism-based; details: in vivo
[5] = Ratio of unbound AUC (0 to 7 hrs) in CSF to blood of Han Wistar rat at 2 mg/kg, po by LC-MS/MS analysis; assay type: ADME, organism-based; details: for Kp uu: Han Wistar, CSF and blood
[6] = (§3) Fraction unbound in Han Wistar rat brain at 5 uM by equilibrium dialysis method; assay type: ADME, tissue-based; details: Han Wistar, brain
[7] = (§4) AUC(0 to 24 hrs) in Han Wistar rat at 2 mg/kg, po; assay type: ADME, organism-based; parameters: dose 2 mg/kg, time < 24 hr, route oral; details: Han Wistar, in vivo
Rattus norvegicus [8] = assay: (§5) Oral bioavailability in Han Wistar rat at 2 mg/kg; assay type: ADME, organism-based; details: in vivo
[9] = Permeability from apical to basolateral side in MDCK2-MDR1 cells; assay type: ADME, cell-based, Canis lupus familiaris, MDCK-II; details: dog; for Papp A→B: MDCK-MDR1
[10] = (§6) AUC (0 to 7 hrs) in Han Wistar rat brain at 2 mg/kg, po by LC-MS/MS analysis; assay type: ADME, organism-based; parameters: dose 2 mg/kg, time < 7 hr, route oral; details: Han Wistar, brain
[11] = (§7) Volume of distribution at steady state in Han Wistar rat at 1 mg/kg, iv; assay type: ADME, organism-based; details: Han Wistar, in vivo, read-out: Vdss
[12] = (§8) AUC (0 to 7 hrs) in Han Wistar rat CSF at 2 mg/kg, po by LC-MS/MS analysis; assay type: ADME, organism-based, Cerebrospinal fluid; parameters: time < 7 hr, dose 2 mg/kg, route oral; details: Han Wistar, CSF
[13] = (§9) AUC (0 to 7 hrs) in Han Wistar rat blood at 2 mg/kg, po by LC-MS/MS analysis; assay type: ADME, organism-based; parameters: dose 2 mg/kg, time < 7 hr, route oral; details: Han Wistar, blood
MDR1 (P-gp) = assay: Efflux ratio of permeability from basolateral to apical side over apical to basolateral side in MDCK2-MDR1 cells; assay type: ADME, cell-based, Canis lupus familiaris; details: dog, MDCK-MDR1
[14] = biological target: Epidermal growth factor receptor (Homo sapiens, UniProt P00533, L858R); assay type: cell-based, H3255
Blood [15] = assay: as §1; assay type: ADME, tissue-based; details: 5 µM
Rattus norvegicus [16] = assay: as §2; assay type: ADME, organism-based; details: in vivo
Brain [17] = assay: as §3; assay type: ADME, tissue-based; details: 5 µM
Rattus norvegicus [18] = assay: as §4; assay type: ADME, organism-based; parameters: dose 2 mg/kg, time < 24 hr, route oral; details: in vivo, 24 h
Brain [19] = assay: as §6; assay type: ADME, organism-based; parameters: dose 2 mg/kg, time < 7 hr, route oral; details: in vivo, 7 h
Rattus norvegicus [20] = assay: as §7; assay type: ADME, organism-based; details: in vivo
Cerebrospinal fluid = assay: as §8; assay type: ADME, organism-based; parameters: time < 7 hr, dose 2 mg/kg, route oral; details: in vivo, 7 h
Blood [21] = assay: as §9; assay type: ADME, organism-based; parameters: dose 2 mg/kg, time < 7 hr, route oral; details: in vivo, 7 h
[22] = AUC (0 to 7 hrs) in Han Wistar rat brain at 20 mg/kg, po measured after 0.5 to 24 hrs by LC-MS/MS analysis; assay type: ADME, organism-based; parameters: time < 7 hr, dose 20 mg/kg, route oral
[23] = AUC (0 to 7 hrs) in Han Wistar rat blood at 20 mg/kg, po measured after 0.5 to 24 hrs by LC-MS/MS analysis; assay type: ADME, organism-based; parameters: time < 7 hr, dose 20 mg/kg, route oral
[24] = AUC (0 to 7 hrs) in Han Wistar rat CSF at 20 mg/kg, po measured after 0.5 to 24 hrs by LC-MS/MS analysis; assay type: ADME, organism-based, Cerebrospinal fluid; parameters: time < 7 hr, dose 20 mg/kg, route oral
[25] = Ratio of unbound AUC (0 to 24 hrs) in CSF to blood of Han Wistar rat at 20 mg/kg, po by LC-MS/MS analysis; assay type: ADME, organism-based; details: CSF and blood
[26] = Ratio of unbound AUC (0 to 24 hrs) in brain to blood of Han Wistar rat at 20 mg/kg, po by LC-MS/MS analysis; assay type: ADME, organism-based; details: brain and blood, read-out: K(p,uu,brain)
BCRP [27] = assay: Permeability from apical to basolateral side in BCRP transfected MDCK2 cells; assay type: ADME, cell-based, Canis lupus familiaris, MDCK-II; details: dog
[28] = as §5; assay type: ADME, organism-based; details: Han Wistar, in vivo
PC-9 [29] = assay: Antitumor activity against human PC9 cells expressing EGFR exon19 deletion mutant xenografted in mouse assessed as tumor regression at 15 mg/kg, qd measured after 4 weeks; assay type: functional, organism-based
Mus musculus = assay: Toxicity in PC9 cells expressing EGFR exon19 deletion mutant xenografted mouse assessed as loss of body weight at 15 mg/kg, qd; assay type: organism-based, PC-9; details: in vivo
BCRP [30] = assay: in vitro; details: dog
Description: Efflux ratio of permeability from basolateral to apical side over apical to basolateral side in BCRP transfected MDCK2 cells

PC-9 [31] = assay: Antitumor activity against human PC9 cells expressing EGFR exon19 deletion mutant xenografted in mouse at 15 mg/kg, qd measured after 4 weeks; assay type: functional, organism-based

Chain of Epidermal growth factor receptor (P00533 25-1210 L858R limits assumed): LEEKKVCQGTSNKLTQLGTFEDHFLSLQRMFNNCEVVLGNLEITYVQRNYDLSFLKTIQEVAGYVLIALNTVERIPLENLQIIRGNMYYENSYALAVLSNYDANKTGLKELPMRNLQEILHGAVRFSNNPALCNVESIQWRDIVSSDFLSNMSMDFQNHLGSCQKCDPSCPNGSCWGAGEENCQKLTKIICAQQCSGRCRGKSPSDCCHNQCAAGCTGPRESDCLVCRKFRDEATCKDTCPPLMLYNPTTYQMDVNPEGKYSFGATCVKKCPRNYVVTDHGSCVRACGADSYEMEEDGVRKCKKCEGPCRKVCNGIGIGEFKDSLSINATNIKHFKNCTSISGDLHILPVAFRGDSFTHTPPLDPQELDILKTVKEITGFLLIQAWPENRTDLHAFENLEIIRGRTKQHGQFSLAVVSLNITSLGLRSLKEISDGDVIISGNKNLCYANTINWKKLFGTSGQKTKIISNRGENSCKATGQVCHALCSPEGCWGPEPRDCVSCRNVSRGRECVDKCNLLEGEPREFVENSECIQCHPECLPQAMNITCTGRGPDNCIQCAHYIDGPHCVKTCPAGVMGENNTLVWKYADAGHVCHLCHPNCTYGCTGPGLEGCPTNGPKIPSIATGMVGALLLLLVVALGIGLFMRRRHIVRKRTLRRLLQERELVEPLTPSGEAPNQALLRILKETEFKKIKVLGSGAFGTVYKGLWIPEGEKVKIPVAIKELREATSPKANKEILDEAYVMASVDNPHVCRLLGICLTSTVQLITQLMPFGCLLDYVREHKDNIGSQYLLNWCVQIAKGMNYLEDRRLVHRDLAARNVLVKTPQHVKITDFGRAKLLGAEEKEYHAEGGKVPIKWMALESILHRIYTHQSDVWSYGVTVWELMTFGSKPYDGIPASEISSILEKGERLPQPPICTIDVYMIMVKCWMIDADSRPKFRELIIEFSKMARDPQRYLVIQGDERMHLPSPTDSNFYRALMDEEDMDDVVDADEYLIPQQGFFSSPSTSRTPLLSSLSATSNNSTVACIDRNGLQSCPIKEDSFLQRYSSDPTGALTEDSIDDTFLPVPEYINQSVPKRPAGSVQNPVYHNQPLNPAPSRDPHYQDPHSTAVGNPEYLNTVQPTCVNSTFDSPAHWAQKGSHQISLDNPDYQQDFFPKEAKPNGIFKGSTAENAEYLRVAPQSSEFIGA

SMILES | fraction unbound at 5 µM [1] | Kp uu [3] | Kp uu [5] | fraction unbound at 5 µM [6] | Papp A→B [9] [×10⁻⁶ cm/s] | AUC(0-t) at 7 h [10] [µM·h] | AUC(0-t) at 7 h [12] [µM·h] | AUC(0-t) at 7 h [13] [µM·h] | efflux ratio (MDR1 (P-gp)) | IC50 [14] [nM] | also measured
COc1cc2ncnc(Nc3cccc(Cl)c3F)c2cc1OC(=O)N1CCN(C)C2CC21 (stereo in doubt; 1i) | 0.028 | 0.51 | 0.9 | 0.019 | 67 | 0.585 | 0.019 | 0.786 |  |  | half-life [2]: 0.9 h; clearance [4]: 28 mL/min/kg; AUC(0-t) at 24 h [7]: 1.57 µM·h; F (Rattus norvegicus [8]): 52%; Vd [11]: 2 L/kg
COc1cc2ncnc(Nc3ccc(F)c(Cl)c3)c2cc1N1CCOCC1 | 0.022 | 0.42 | 0.79 | 0.0083 | 29 | 0.085 | 0.001 | 0.077 | 0.18 | 1.5 | 
COc1cc2ncnc(Nc3cccc(Cl)c3F)c2cc1OC(=O)N1CCN(C)C2CC21 (stereo in doubt; 1j) |  |  |  |  |  |  |  |  |  |  | Fu (Blood [15]): 2.4%; beta t1/2 (Rattus norvegicus [16]): 1.3 h; K(p,uu,brain) ([3]; brain): 0.74; K(p,uu,CSF) ([5]; csf): 1.6; Fu (Brain [17]): 1.8%; AUC (Rattus norvegicus [18]): 2.315 µM·h; F (Rattus norvegicus [8]): 84%; Papp ([9]; mdck-ii): 76 ×10⁻⁶ cm/s; AUC (Brain [19]): 0.727 µM·h; Vdss (Rattus norvegicus [20]): 2.5 L/kg; AUC (Cerebrospinal fluid): 0.028 µM·h; AUC (Blood [21]): 0.74 µM·h
COc1cc2ncnc(Nc3cccc(Cl)c3F)c2cc1OC(=O)N1CCOCC1 | 0.038 | 1.7 | 3.4 | 0.026 | 42 | 0.104 | 0.005 | 0.042 | 0.58 | 4.1 | 
COc1cc2ncnc(Nc3ccc(F)c(Cl)c3)c2cc1OCCCN1CCOCC1 [GEFITINIB] |  |  |  | 0.0039 | 8.3 |  |  |  |  |  | AUC(0-t) at 7 h [22]: 5.65 µM·h; AUC(0-t) at 7 h [23]: 31.9 µM·h; AUC(0-t) at 7 h [24]: 0.093 µM·h; Kp uu [25]: 0.088; Kp uu [26]: 0.021; Papp A→B (BCRP [27]): 4.2 ×10⁻⁶ cm/s
COc1cc2ncnc(Nc3cccc(Cl)c3F)c2cc1OC(=O)N1CCN(C)C[C@@H]1C | 0.023 | 1.6 | 2.6 | 0.015 | 51 | 1.94 | 0.048 | 0.805 |  |  | half-life [2]: 2.4 h; clearance [4]: 29 mL/min/kg; AUC(0-t) at 24 h [7]: 2.95 µM·h; bioavailability [28]: 83%; Vd [11]: 2.7 L/kg
COc1cc2ncnc(Nc3cccc(Cl)c3F)c2cc1OC(=O)N1CC[C@H](N(C)C)C1 | 0.049 | 0.15 | 0.56 | 0.024 | 17 | 0.798 | 0.068 | 2.48 | 0.34 | 2.7 | 
C#Cc1cccc(Nc2ncnc3cc(OCCOC)c(OCCOC)cc23)c1 [ERLOTINIB] | 0.045 |  |  | 0.029 | 19 |  |  |  | 1.7 |  | Activity (PC-9 [29]): Active; Activity (Mus musculus): Toxic; efflux ratio (BCRP [30]): 5.4; Activity (PC-9 [31]): Active; Kp uu [25]: 0.29; Kp uu [26]: 0.11; Papp A→B (BCRP [27]): 14 ×10⁻⁶ cm/s
